Reference: patent publication US9988430B2, “Stable GLP-1 based GLP-1/glucagon receptor co-agonists” (Novo Nordisk A/S, priority 2014, dated 2018)
pEC50: −log10 of the molar value. *1 amine or outer side, *2 acyl side, *3 side chain or, on linkers, in order; H or OH if unused. Where a SMILES comes first, the peptide text is derived from it. Bridges are numbered along the chain shown (N, C = ends). Roman numbers before positions name the chains, in order. Side-chain parts run from the residue outwards. [ ]: non-standard residue; d: D form. The star is where a group is joined. C18 diacid = O=C(O)CCCCCCCCCCCCCCCCC(=O)*; γGlu = O=C(O)[C@H](CCC(=O)[*:2])N[*:1]; Desaminohistidyl = O=C(CCc1c[nH]cn1)*; Ac4c = NC1(C(=O)O)CCC1; Aib = CC(C)(N)C(=O)O

Key:
[1] = biological target: T1, human GLP-1 receptor (Homo sapiens, UniProt P43220); assay: Assay (I)(a): GLP-1 receptor potency, CRE luciferase reporter gene assay in BHK cells; assay type: cell-based; conditions: BHK cells expressing human GLP-1 receptor, read-out: EC50 GLP-1R
T1 construct: expressed in transfected cells; host or cells: membranes of BHK cells, parent line BHKTS13, clone FCW467-12A
Outline: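 BHK cells (clone FCW467-12A/KZ10-1), 5×10EE3/well, exposed 3 h at 37° C to compound at 1×10EE-13 to 1×10EE-6 M final in medium with 2% ovalbumin and 0.2% Pluronic F-68. Luciferase luminescence read; EC50 (pM) from four-parameter fit.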

[2] = Assay (V): chemical stability assessment by RP-UPLC; assay type: physicochemical; conditions: 14 days at 37° C. in phosphate buffer (pH 7.3)
Experimental: Assay (V): Chemical Stability Assessment
The purpose of this assay is to assess the chemical stability of the GLP-1 derivatives of the present invention in aqueous solutions.
Chemical stability of GLP-1 derivatives may be investigated by RP-UPLC separation and UV detection. Lyophilized samples are dissolved in a 8 mM Phosphate buffer pH 8.6, followed by adjustment to pH 7.3 using HCl to a final concentration of 333 μM. Samples are incubated for 14 days at 5° C. and 37° C. followed by RP-UPLC analysis. Purity is defined as the area percentage of the main peak in relation to the total area of all integrated peaks in each chromatogram. Purity loss, also referred to herein as chemical degradation, after 14 days at 37° C. is determined as the difference in purity between the samples incubated at 5° C. and 37° C., divided by the purity of the sample after incubation for 14 days at 5° C.
RP-UPLC analysis is performed using a Waters BEH130 2.1 mm×150 mm, 1.7 μm column operated at 50° C. and a flow rate of 0.4 mL/min using a mobile phase system consisting of A: 0.05% TFA in MQ-water, and B: 0.05% TFA in Acetonitrile. UV-detection is performed at 215 nm. The typical gradient profile used for most of the samples is shown below.
For some individual derivatives eluting at substantially different retention times compared with the majority of derivatives, some adjustments to the gradient profile are made to better enable purity assessment comparison across samples.

T1 sequence (P43220 24-463): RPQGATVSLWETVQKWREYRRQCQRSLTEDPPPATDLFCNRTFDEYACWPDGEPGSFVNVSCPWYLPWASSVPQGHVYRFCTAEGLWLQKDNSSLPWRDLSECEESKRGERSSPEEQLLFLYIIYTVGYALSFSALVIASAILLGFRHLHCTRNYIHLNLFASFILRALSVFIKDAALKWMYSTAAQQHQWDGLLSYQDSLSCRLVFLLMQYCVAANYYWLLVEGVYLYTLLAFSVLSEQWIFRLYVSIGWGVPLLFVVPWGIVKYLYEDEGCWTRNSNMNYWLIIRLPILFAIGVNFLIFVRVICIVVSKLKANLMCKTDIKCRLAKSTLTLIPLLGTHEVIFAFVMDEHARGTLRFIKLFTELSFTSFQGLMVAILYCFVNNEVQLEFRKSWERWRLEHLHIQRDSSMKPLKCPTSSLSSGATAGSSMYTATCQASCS

Row | Compound | pEC50 [1] | Chemical stability: Chemical degradation over 14 days at 37° C. [2]
1 | CC[C@H](C)[C@H](NC(=O)[C@H](Cc1ccccc1)NC(=O)[C@H](CCC(=O)O)NC(=O)[C@H](CCCNC(=N)N)NC(=O)[C@H](C)NC(=O)[C@H](C)NC(=O)[C@H](CCCNC(=N)N)NC(=O)CNC(=O)[C@H](CCC(=O)O)NC(=O)[C@H](CC(C)C)NC(=O)[C@H](Cc1ccc(O)cc1)NC(=O)[C@H](CCCCN)NC(=O)[C@H](CO)NC(=O)[C@@H](NC(=O)[C@H](CC(=O)O)NC(=O)[C@H](CO)NC(=O)[C@@H](NC(=O)[C@H](Cc1ccccc1)NC(=O)[C@@H](NC(=O)CNC(=O)[C@H](Cc1c[nH]cn1)NC(=O)C1(NC(=O)CCc2c[nH]cn2)CCC1)[C@@H](C)O)[C@@H](C)O)C(C)C)C(=O)N[C@@H](C)C(=O)N[C@@H](Cc1c[nH]c2ccccc12)C(=O)N[C@@H](CC(C)C)C(=O)N[C@@H](CC(C)C)C(=O)N[C@@H](CCCCNC(=O)CNC(=O)[C@H](CO)NC(=O)[C@H](CCC(=O)O)NC(=O)CNC(=O)[C@H](CO)NC(=O)CC[C@H](NC(=O)CC[C@H](NC(=O)CCCCCCCCCCCCCCCCC(=O)O)C(=O)O)C(=O)O)C(=O)N[C@H](C(N)=O)[C@@H](C)O [Example 20, N^ε34-[2-[[(2S)-2-[[(2S)-4-carboxy-2-[[2-[[(2S)-2-[[(4S)-4-carboxy-4-[[(4S)-4-carboxy-4-(17-carboxyheptadecanoylamino)butanoyl]amino]butanoyl]amino]-3-hydroxypropanoyl]amino]acetyl]amino]butanoyl]amino]-3-hydroxypropanoyl]amino]acetyl]-[Imp7,Acb8,His9,Lys18,Arg23,Arg26,Leu33,Thr35]-GLP-1-(7-35)-peptide amide] (I: Desaminohistidyl-[Ac4c]HGTFTSDVSKYLEGRAAREFIAWLLKT-NH2 / II: {C18 diacid-γGlu-γGlu}-SGESG; amide I:27-II:C) | 10.92 | 0.4%
2 | CC[C@H](C)[C@H](NC(=O)[C@H](Cc1ccccc1)NC(=O)[C@H](CCC(=O)O)NC(=O)[C@H](CCCNC(=N)N)NC(=O)[C@H](C)NC(=O)[C@H](C)NC(=O)[C@H](CCC(N)=O)NC(=O)[C@H](CCC(=O)O)NC(=O)[C@H](CCC(=O)O)NC(=O)[C@H](CC(C)C)NC(=O)[C@H](Cc1ccc(O)cc1)NC(=O)[C@H](CCCCN)NC(=O)[C@H](CO)NC(=O)[C@@H](NC(=O)[C@H](CC(=O)O)NC(=O)[C@H](CO)NC(=O)[C@@H](NC(=O)[C@H](Cc1ccccc1)NC(=O)[C@@H](NC(=O)CNC(=O)[C@H](Cc1c[nH]cn1)NC(=O)C(C)(C)NC(=O)CCc1c[nH]cn1)[C@@H](C)O)[C@@H](C)O)C(C)C)C(=O)N[C@@H](C)C(=O)N[C@@H](Cc1c[nH]c2ccccc12)C(=O)N[C@@H](CC(C)C)C(=O)N[C@@H](CC(C)C)C(=O)N[C@@H](CCCCNC(=O)CNC(=O)[C@H](CO)NC(=O)[C@H](CCC(=O)O)NC(=O)CNC(=O)[C@H](CO)NC(=O)CC[C@H](NC(=O)CC[C@H](NC(=O)CCCCCCCCCCCCCCCCC(=O)O)C(=O)O)C(=O)O)C(=O)N[C@H](C(N)=O)[C@@H](C)O [Example 3, N^ε34-[2-[[(2S)-2-[[(2S)-4-carboxy-2-[[2-[[(2S)-2-[[(4S)-4-carboxy-4-[[(4S)-4-carboxy-4-(17-carboxyheptadecanoylamino)butanoyl]amino]butanoyl]amino]-3-hydroxypropanoyl]amino]acetyl]amino]butanoyl]amino]-3-hydroxypropanoyl]amino]acetyl]-[Imp7,Aib8,His9,Lys18,Glu22,Arg26,Leu33,Thr35]-GLP-1-(7-35)-peptide amide] (I: Desaminohistidyl-[Aib]HGTFTSDVSKYLEEQAAREFIAWLLKT-NH2 / II: {C18 diacid-γGlu-γGlu}-SGESG; amide I:27-II:C) | 11.30 | −0.3%
3 | CC[C@H](C)[C@H](NC(=O)[C@H](Cc1ccccc1)NC(=O)[C@H](CCC(=O)O)NC(=O)[C@H](CCCNC(=N)N)NC(=O)[C@H](C)NC(=O)[C@H](C)NC(=O)[C@H](CCC(N)=O)NC(=O)[C@H](CCC(=O)O)NC(=O)[C@H](CCC(=O)O)NC(=O)[C@H](CC(C)C)NC(=O)[C@H](Cc1ccc(O)cc1)NC(=O)[C@H](CCCCN)NC(=O)[C@H](CO)NC(=O)[C@@H](NC(=O)[C@H](CC(=O)O)NC(=O)[C@H](CO)NC(=O)[C@@H](NC(=O)[C@H](Cc1ccccc1)NC(=O)[C@@H](NC(=O)CNC(=O)[C@H](Cc1c[nH]cn1)NC(=O)C(C)(C)NC(=O)CCc1c[nH]cn1)[C@@H](C)O)[C@@H](C)O)C(C)C)C(=O)N[C@@H](C)C(=O)N[C@@H](Cc1c[nH]c2ccccc12)C(=O)N[C@@H](CC(C)C)C(=O)N[C@@H](CC(C)C)C(=O)N[C@@H](CCCCNC(=O)CC[C@H](NC(=O)CC[C@H](NC(=O)CC[C@H](NC(=O)CC[C@H](NC(=O)CCCCCCCCCCCCCCCCC(=O)O)C(=O)O)C(=O)O)C(=O)O)C(=O)O)C(=O)N[C@H](C(N)=O)[C@@H](C)O [Example 6, N^ε34-[(4S)-4-carboxy-4-[[(4S)-4-carboxy-4-[[(4S)-4-carboxy-4-[[(4S)-4-carboxy-4-(17-carboxyheptadecanoylamino)butanoyl]amino]butanoyl]amino]butanoyl]amino]butanoyl]-[Imp7,Aib8,His9,Lys18,Glu22,Arg26,Leu33,Thr35]-GLP-1-(7-35)-peptide amide] (Desaminohistidyl-[Aib]HGTFTSDVSKYLEEQAAREFIAWLLK([γGlu-γGlu-γGlu-γGlu-C18 diacid])T-NH2) | 11.15 | 0.1%
4 | CC[C@H](C)[C@H](NC(=O)[C@H](Cc1ccccc1)NC(=O)[C@H](CCC(=O)O)NC(=O)[C@H](CCCNC(=N)N)NC(=O)[C@H](C)NC(=O)[C@H](C)NC(=O)[C@H](CCC(N)=O)NC(=O)[C@H](CCC(=O)O)NC(=O)[C@H](CCC(=O)O)NC(=O)[C@H](CC(C)C)NC(=O)[C@H](Cc1ccc(O)cc1)NC(=O)[C@H](CCCCN)NC(=O)[C@H](CO)NC(=O)[C@@H](NC(=O)[C@H](CC(=O)O)NC(=O)[C@H](CO)NC(=O)[C@@H](NC(=O)[C@H](Cc1ccccc1)NC(=O)[C@@H](NC(=O)CNC(=O)[C@H](Cc1c[nH]cn1)NC(=O)C(C)(C)NC(=O)CCc1c[nH]cn1)[C@@H](C)O)[C@@H](C)O)C(C)C)C(=O)N[C@@H](C)C(=O)N[C@@H](Cc1c[nH]c2ccccc12)C(=O)N[C@@H](CC(C)C)C(=O)N[C@@H](CC(C)C)C(=O)N[C@@H](CCCCNC(=O)CNC(=O)[C@H](CO)NC(=O)CC[C@H](NC(=O)CC[C@H](NC(=O)CCCCCCCCCCCCCCCCC(=O)O)C(=O)O)C(=O)O)C(=O)N[C@H](C(N)=O)[C@@H](C)O [Example 4, N^ε34-[2-[[(2S)-2-[[(4S)-4-carboxy-4-[[(4S)-4-carboxy-4-(17-carboxyheptadecanoylamino)butanoyl]amino]butanoyl]amino]-3-hydroxypropanoyl]amino]acetyl]-[Imp7,Aib8,His9,Lys18,Glu22,Arg26,Leu33,Thr35]-GLP-1-(7-35)-peptide amide] (Desaminohistidyl-[Aib]HGTFTSDVSKYLEEQAAREFIAWLLK([Gly-Ser-γGlu-γGlu-C18 diacid])T-NH2) | 11.15 | 0.2%
5 | CC[C@H](C)[C@H](NC(=O)[C@H](Cc1ccccc1)NC(=O)[C@H](CCC(=O)O)NC(=O)[C@H](CCCNC(=N)N)NC(=O)[C@H](C)NC(=O)[C@H](C)NC(=O)[C@H](CCC(N)=O)NC(=O)[C@H](CCC(=O)O)NC(=O)[C@H](CCC(=O)O)NC(=O)[C@H](CC(C)C)NC(=O)[C@H](Cc1ccc(O)cc1)NC(=O)[C@H](CCCNC(=N)N)NC(=O)[C@H](CO)NC(=O)[C@@H](NC(=O)[C@H](CC(=O)O)NC(=O)[C@H](CO)NC(=O)[C@@H](NC(=O)[C@H](Cc1ccccc1)NC(=O)[C@@H](NC(=O)CNC(=O)[C@H](Cc1c[nH]cn1)NC(=O)C(C)(C)NC(=O)CCc1c[nH]cn1)[C@@H](C)O)[C@@H](C)O)C(C)C)C(=O)N[C@@H](C)C(=O)N[C@@H](Cc1c[nH]c2ccccc12)C(=O)N[C@@H](CC(C)C)C(=O)N[C@@H](CC(C)C)C(=O)N[C@@H](CCCCNC(=O)CNC(=O)[C@H](CO)NC(=O)[C@H](CCC(=O)O)NC(=O)CNC(=O)[C@H](CO)NC(=O)CC[C@H](NC(=O)CC[C@H](NC(=O)CCCCCCCCCCCCCCCCC(=O)O)C(=O)O)C(=O)O)C(=O)N[C@H](C(N)=O)[C@@H](C)O [Example 7, N^ε34-[2-[[(2S)-2-[[(2S)-4-carboxy-2-[[2-[[(2S)-2-[[(4S)-4-carboxy-4-[[(4S)-4-carboxy-4-(17-carboxyheptadecanoylamino)butanoyl]amino]butanoyl]amino]-3-hydroxypropanoyl]amino]acetyl]amino]butanoyl]amino]-3-hydroxypropanoyl]amino]acetyl]-[Imp7,Aib8,His9,Arg18,Glu22,Arg26,Leu33,Thr35]-GLP-1-(7-35)-peptide amide] (I: Desaminohistidyl-[Aib]HGTFTSDVSRYLEEQAAREFIAWLLKT-NH2 / II: {C18 diacid-γGlu-γGlu}-SGESG; amide I:27-II:C) | 11.22 | 0.0%
